Experimental data reported in BindingDB's records for patent US11897898 (Biogen Ma, 2024).

Molecular target: T1, Mitogen-activated protein kinase kinase kinase 5 (Homo sapiens, UniProt Q99683)
T1 sequence (Q99683 whole entry): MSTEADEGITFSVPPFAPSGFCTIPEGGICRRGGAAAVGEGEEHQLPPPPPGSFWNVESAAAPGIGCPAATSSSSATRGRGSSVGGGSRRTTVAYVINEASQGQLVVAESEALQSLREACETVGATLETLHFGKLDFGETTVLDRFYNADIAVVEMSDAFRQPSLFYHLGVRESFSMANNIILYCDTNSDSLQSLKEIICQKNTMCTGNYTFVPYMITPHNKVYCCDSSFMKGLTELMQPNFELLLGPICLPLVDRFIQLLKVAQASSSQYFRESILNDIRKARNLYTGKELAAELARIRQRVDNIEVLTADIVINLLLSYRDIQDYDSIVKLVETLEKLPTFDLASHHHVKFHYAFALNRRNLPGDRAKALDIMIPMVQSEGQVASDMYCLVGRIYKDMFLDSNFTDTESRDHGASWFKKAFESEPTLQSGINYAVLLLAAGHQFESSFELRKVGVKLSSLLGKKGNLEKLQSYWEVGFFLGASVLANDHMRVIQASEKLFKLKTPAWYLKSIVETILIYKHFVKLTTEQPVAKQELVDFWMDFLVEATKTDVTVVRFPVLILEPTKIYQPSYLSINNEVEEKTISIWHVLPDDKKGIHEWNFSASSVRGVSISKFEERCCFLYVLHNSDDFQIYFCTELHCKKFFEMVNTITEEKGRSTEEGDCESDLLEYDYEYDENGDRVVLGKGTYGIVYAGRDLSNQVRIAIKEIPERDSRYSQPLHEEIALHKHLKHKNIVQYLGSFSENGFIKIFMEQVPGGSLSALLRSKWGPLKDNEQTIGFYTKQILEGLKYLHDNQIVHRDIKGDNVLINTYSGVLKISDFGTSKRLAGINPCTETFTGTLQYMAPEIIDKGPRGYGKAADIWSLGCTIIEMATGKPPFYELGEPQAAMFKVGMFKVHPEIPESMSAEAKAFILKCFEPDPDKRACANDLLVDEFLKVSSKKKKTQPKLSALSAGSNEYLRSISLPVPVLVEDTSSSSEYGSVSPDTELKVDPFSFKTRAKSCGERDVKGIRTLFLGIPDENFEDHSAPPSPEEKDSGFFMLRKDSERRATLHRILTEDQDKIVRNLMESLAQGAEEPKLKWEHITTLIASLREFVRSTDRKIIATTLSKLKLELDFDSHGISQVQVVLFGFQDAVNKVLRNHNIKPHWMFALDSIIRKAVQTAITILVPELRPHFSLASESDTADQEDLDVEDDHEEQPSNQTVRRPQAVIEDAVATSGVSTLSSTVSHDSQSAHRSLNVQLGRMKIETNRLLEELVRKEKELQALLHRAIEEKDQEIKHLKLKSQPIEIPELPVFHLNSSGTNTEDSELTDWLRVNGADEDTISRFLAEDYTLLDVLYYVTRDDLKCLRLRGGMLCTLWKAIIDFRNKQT
Assay: ASK1 Enzyme Assay
Protocol: The protein kinase inhibitory activity of the compounds described herein were tested using the ASK1/MAP3K5 assay by Reaction Biology Corp. (Malvern, Pa.). The assay procedure follows (and is also available on the Reaction Biology Corp. website).Base Reaction Buffer: 20 mM Hepes (pH 7.5), 10 mM MgCl2, 1 mM EGTA,0.02% Brij35, 0.02 mg/mL BSA, 0.1 mM Na3VO4, 2 mM DTT, 1% DMSO;Substrate: 20 μM of myelin basic protein (MBP) and 10 μM ATP;Protein kinase: ASK1/MAP3K5.Reaction Procedure:1. Prepare indicated substrate in freshly prepared Base Reaction Buffer.2. Deliver any required cofactors to the substrate solution.3. Deliver indicated kinase into the substrate solution and gently mix.4. Deliver compounds in DMSO into the kinase reaction mixture by Acoustic; technology (Echo550; nanoliter range), incubate for 20 minutes at room temperature.5. Deliver 33P-ATP (specific activity 10 μCi/μL) into the reaction mixture to initiate the reaction.6. Incubate kinase reaction for 2 hours at room temperature.7. Reactions are spotted onto P81 ion exchange paper.8. Detect kinase activity by filter-binding method.

| Structure (SMILES) | IC50 |
| --- | --- |
| C[C@@H]1CCCOc2ncc(-c3ccncc3)cc2C(=O)Nc2cccc(n2)-c2nncn21 [US11897898, Example 18] | in the range around 550 nM |
| C[C@@H]1CCCOc2ncc(N3CCOCC3)cc2C(=O)Nc2cccc(n2)-c2nncn21 [US11897898, Example 6] | in the range around 550 nM |
